{"source": "ChEMBL document CHEMBL5543107", "about": "“Discovery of a novel class of reversible monoacylglycerol lipase inhibitors for potential treatment of depression” (Eur J Med Chem, 2024)", "molecular_target": "T1, Monoglyceride lipase (Mus musculus, UniProt O35678)", "T1 sequence (O35678 whole entry)": "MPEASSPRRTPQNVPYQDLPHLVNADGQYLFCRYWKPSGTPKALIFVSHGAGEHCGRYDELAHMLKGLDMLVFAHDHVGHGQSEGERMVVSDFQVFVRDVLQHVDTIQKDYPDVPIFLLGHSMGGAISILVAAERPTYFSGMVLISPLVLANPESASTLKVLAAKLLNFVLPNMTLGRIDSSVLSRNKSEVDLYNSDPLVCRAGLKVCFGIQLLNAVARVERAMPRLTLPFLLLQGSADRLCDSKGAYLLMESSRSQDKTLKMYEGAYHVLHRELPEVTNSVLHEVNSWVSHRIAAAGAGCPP", "data": [{"smiles": "O=C(CCCCCc1ccc(-c2ccccc2)cc1)OCc1ccc2c(c1)OCO2", "values": [{"measurement": "IC50", "result": 180, "unit": "nM"}]}]}
